Results: patent US7754200B2, “Phosphate transport inhibitors” (Genzyme Corporation, priority 2002, dated 2010)

System: phosphate uptake by rabbit intestinal Brush Border Membrane Vesicles (BBMV)
Experiment: 33PO4 Uptake in Rabbit Intestinal BBMV High Throughput Screening (HTS) assay
Assay type: biochemical
Details: inhibition of 33PO4 uptake, 15 minutes
From the text: The activity of compounds of the present invention can be assessed using suitable assays, such as the ^33PO4 Uptake In Rabbit Intestinal BBMV High Throughput Screening (HTS) assay, as described in the Example 28. Compounds of the present invention can also be identified by virtue of their ability to inhibit the absorption of phosphate in vivo, for example, in the gastrointestinal tract of a laboratory animal.
The following example outlines the procedures required for in vitro measurement of the inhibition of phosphate uptake by rabbit intestinal Brush Border Membrane Vesicles (BBMV).
Rabbit Intestinal Brush Border Membrane Vesicles (BBMV) were isolated from mucosal scrapings of the upper small intestine (duodenum) of male New Zealand White rabbits. The scrapings were divided into 2 g aliquots in cryopreservation vials, frozen in liquid nitrogen, and stored at −80° C.
The following procedure was performed for each 2 g sample of BBMV mucosal scraping. Buffer volumes and container sizes were adjusted appropriately for the number of 2 g samples used. The entire preparation was performed on ice, unless otherwise stated.
Mucosal scrapings (2 g per tube) were thawed in a 37° C. water bath for 3 minutes and then placed on ice. The scrapings were suspended with a total of 7.5 mL of 300 MET, and transferred to a 250 mL Coming tube on ice. To the suspension was added 30 mL cold (4° C.) deionized water (dH2O). The suspension was homogenized with a tissue homogenizer (Polytron) on high speed for two minutes. A stir bar and MgCl2 (81.3 mg) were added. The suspension was mixed well by inverting the closed tube. The suspension was stirred on ice, ensuring that a good vortex is achieved with the stir bar, for 40 minutes. The suspension was transferred to a chilled centrifuge tube and spun at 4000×g for 15 minutes. The supernatant was transferred to a new chilled centrifuge tube and spun at 32000×g for 30 minutes. The supernatant was discarded and the pellet was re-suspended with 34 mL cold 60 MET. The suspension was homogenized with a Dounce homogenizer with 8 strokes. The suspension was transferred to a fresh 250 mL Coming tube. A stir bar and 69.1 mg MgCl2 were added. The suspension was stirred well on ice for 10 minutes. The suspension was transferred to a chilled centrifuge tube and spun at 4000×g for 15 minutes. The supernatant was transferred to a new chilled centrifuge tube and spun at 32000×g for 30 minutes. The supernatant was discarded. At this stage, the preparation could be continued or this pellet (P4) could be frozen in liquid nitrogen and stored at −80° C. When needed, this pellet could be allowed to thaw at room temperature for 5 minutes. Continuing the preparation, the pellet was re-suspended with 34 mL cold 280 MH. The suspension was homogenized in a Dounce homogenize with 8 strokes. The suspension was transferred to a new chilled centrifuge tube and spun at 32000×g for 30 minutes. The supernatant was discarded. To the pellet was added 500 μL 280 MH and the pellet was re-suspended very carefully with a 1 mL tuberculin syringe with a 25-gauge needle with care not to create bubbles. Once the entire pellet was suspended, the suspension was transferred to a chilled 1.5 mL microfuge tube. The suspension was evenly dispersed by bringing the suspension up into the syringe through the 25-gauge needle, and back out again eight times with care not to create bubbles. The total protein concentration was determined by performing a Bradford Protein Assay. Using that value, the BBMV were diluted with 280 MH to reach approximately 0.5-2.0 mg/mL. The solution was used as soon as possible for uptake studies.
^33PO4 Uptake in Rabbit Intestinal BBMV
The following experiment was performed using a Beckman Multimek 96-tip robotic pipettor. The following outlines the preparation required to screen one 96-well plate of compounds. However, multiple plates could be screened in one experiment. […]

Question: How did the IC50 turn out when `CCCCCCCCCC(CCCCCN)P(=O)(O)CP(=O)(O)O` (centres unmarked) [Compound 18] was run?
Answer: Its IC50 is 300 to 700 µM.

Question: With `CCCCCCCCCCP(=O)(O)CP(=O)(O)O` [Compound 1] as the compound, how does the IC50 read?
Answer: The IC50 was less than 100 µM.

Question: `O=P(O)(O)CP(=O)(O)c1ccc(C(F)(F)F)cc1` [Compound 5] was tested. Which IC50 did it give?
Answer: Its IC50 is less than 100 µM.

Question: Which IC50 does the source give for `O=P(O)(O)CP(=O)(O)C/C=C/c1ccccc1` [Compound 30] here?
Answer: The IC50 was 1000 to 1600 µM.

Question: `O=P(O)(O)CP(=O)(O)CCCCCCCCCC1CO1` (centres unmarked) [Compound 22] was tested. Which IC50 did it give?
Answer: The IC50 was 700 to 1000 µM.

Question: For `C=CCCCCCCCCCP(=O)(O)C(F)(F)P(=O)(O)O` [Compound 2], which IC50 is on record?
Answer: Its IC50 is less than 100 µM.

Question: With `C=CCCCP(=O)(O)CP(=O)(O)O` [Compound 34] as the compound, how does the IC50 read?
Answer: Its IC50 is greater than 1600 µM.

Question: Which IC50 does the source give for `O=C1c2ccccc2C(=O)N1CCCCCCCCCCCP(=O)(O)CP(=O)(O)O` [Compound 8] here?
Answer: Its IC50 is less than 100 µM.

Question: With `C=CCCCCCCCCCP(=O)(O)C(CCCCC)P(=O)(O)O` (centres unmarked) [Compound 23] as the compound, how does the IC50 read?
Answer: Its IC50 is 700 to 1000 µM.

Question: How did the IC50 turn out when `CCC(=O)NCCCCCCCCCCCP(=O)(O)CP(=O)(O)O` [Compound 24] was run?
Answer: The IC50 was 700 to 1000 µM.

Question: Which IC50 does the source give for `O=P(O)(O)CP(=O)(O)C1CCCCC1` [Compound 33] here?
Answer: Its IC50 is greater than 1600 µM.

Question: How did the IC50 turn out when `O=P(O)(O)CP(=O)(O)CCCCCCCCCC(Br)CBr` (centres unmarked) [Compound 6] was run?
Answer: The IC50 was less than 100 µM.

Question: How did the IC50 turn out when `O=P(O)(O)CP(=O)(O)CCCC1CCCCC1` [Compound 19] was run?
Answer: Its IC50 is 300 to 700 µM.

Question: `O=P(O)(O)CP(=O)(O)CCCCCCCCCCCNS(=O)(=O)c1ccc(OC(F)(F)F)cc1` [Compound 14] was tested. Which IC50 did it give?
Answer: Its IC50 is 100 to 300 µM.

Question: `CCCCCCCCCC(CCCCCNC(=O)CC)P(=O)(O)CP(=O)(O)O` (centres unmarked) [Compound 28] was tested. Which IC50 did it give?
Answer: The IC50 was 1000 to 1600 µM.

Question: With `O=P(O)(O)CP(=O)(O)CCCCCCCCCCCO` [Compound 25] as the compound, how does the IC50 read?
Answer: Its IC50 is 700 to 1000 µM.

Question: For `CCCCCCCCCCC(P(C)(=O)O)P(=O)(O)O` (centres unmarked) [Compound 26], which IC50 is on record?
Answer: Its IC50 is 700 to 1000 µM.

Question: For `C=CCCCCCCCCCP(=O)(O)C(CCCCC)P(=O)(O)O` (centres unmarked) [Compound 21], which IC50 is on record?
Answer: The IC50 was 700 to 1000 µM.

Question: `C=CC(=O)NCCCCCCCCCCCP(=O)(O)CP(=O)(O)O` [Compound 35] was tested. Which IC50 did it give?
Answer: The IC50 was greater than 1600 µM.

Question: `C=CCCCP(=O)(O)C(Cc1ccc(-c2ccccc2)cc1)P(=O)(O)O` (centres unmarked) [Compound 32] was tested. Which IC50 did it give?
Answer: Its IC50 is 1000 to 1600 µM.

Question: For `C=CCCCP(=O)(O)C(CCCCCCCCCC)P(=O)(O)O` (centres unmarked) [Compound 17], which IC50 is on record?
Answer: The IC50 was 300 to 700 µM.

Question: For `NCCCCCCCCCCCP(=O)(O)CP(=O)(O)O` [Compound 27], which IC50 is on record?
Answer: Its IC50 is 1000 to 1600 µM.

Question: `O=P(O)(O)CP(=O)(O)CCCCCBr` [Compound 29] was tested. Which IC50 did it give?
Answer: The IC50 was 1000 to 1600 µM.

Question: Which IC50 does the source give for `C=CCCCCCCCCCP(=O)(O)CP(=O)(O)O` [Compound 4] here?
Answer: The IC50 was less than 100 µM.

Question: `C=CCCCCCCCCCP(=O)(O)CP(=O)(O)CP(=O)(O)O` [Compound 16] was tested. Which IC50 did it give?
Answer: Its IC50 is 100 to 300 µM.

Question: `C=CCCCCCCCCCP(=O)(O)C(F)P(=O)(O)O` (centres unmarked) [Compound 3] was tested. Which IC50 did it give?
Answer: The IC50 was less than 100 µM.

Question: For `C=CCCCP(=O)(O)C(CCCC1CCCCC1)P(=O)(O)O` (centres unmarked) [Compound 36], which IC50 is on record?
Answer: Its IC50 is greater than 1600 µM.

Question: With `O=C(NCCCCCCCCCCCP(=O)(O)CP(=O)(O)O)c1ccc(OC(F)(F)F)cc1` [Compound 10] as the compound, how does the IC50 read?
Answer: The IC50 was 100 to 300 µM.

Question: Which IC50 does the source give for `C=CCCC(CCCCCCCCCC)P(=O)(O)CP(=O)(O)O` (centres unmarked) [Compound 11] here?
Answer: The IC50 was 100 to 300 µM.
